US20260193254A1, “2-OXOQUINAZOLINE CRYSTALLINE FORMS” (IDEAYA Biosciences, Inc., priority 2022, published 2026)
pIC50: −log10 of the molar value. In brackets after ≈: the same amount, converted by molar mass.

Tests used:
[1] = Bulk stability of crystalline forms; format: physicochemical; settings: for Purity, Bulk (HPLC): Solid state; for Initial purity: before stress, HPLC; for chemical stability and physical stability (bulk stability): stressed under 25° C./92 RH, 40% C/75% RH and 60° C., XRPD and HPLC
From the text: (§1) Solids obtained after bulk stability study were characterized by XRPD and HPLC.

[2] = Grinding simulation experiments - wet grinding (granulation); format: physicochemical
Procedure: Water or ethanol was added drop wise to about 20 mg of Form A, Form D, or Form T until solid was wetted sufficiently. Vortex was applied between each addition. Samples were dried under ambient condition for 10 min. Potential form transition and degree of crystallinity were evaluated by XRPD.

[3] = Grinding simulation experiments - dry grinding; format: physicochemical
Procedure: About 20 mg of Form A, Form D, and Form T were ground manually with a mortar and a pestle for 5 min or 1 min. Potential from transition and degree of crystallinity were evaluated by XRPD.

[4] = Bulk stability of crystalline forms; format: physicochemical; design: key: Color A: All No change of color; settings: Solid state
From the text: as §1

[5] = Equilibrium solubility in FeSSIF and FaSSIF; format: physicochemical; settings: 24 hours; for Solubility: target concentration 1 mg/mL, HPLC method 1 or 2 (footnote)
Procedure: Solid part and liquid part were separated by filtration. Solubility was measured by HPLC. Solid part (wet cake) was investigated by XRPD.

[6] = Intrinsic dissolution rate (IDR) evaluation in FaSSIF; format: physicochemical; settings: FaSSIF at 37° C.; for XRPD after IDR: disc surface after 120 min; for Concentration detected during IDR test (Comments): for Form V and Form A remains same during the whole process, LOQ for Form T and amorphous form
Procedure: Only one surface of the pellet was exposed (surface area=0.50 cm^2) to 900 mL FaSSIF, the dissolution medium. Temperature of chamber medium was set as 37±0.5° C. Shaft rotation as 100 rpm and sampling time points as 2 min, 5 min, 10 min, 15 min, 20 min, 25 min, 30 min, 35 min, 40 min, 50 min, 60 min, and 120 min. 2 mL sample solution was withdrawn at each time point and centrifuged at 14,000 rpm for 5 min to isolate supernatant. Then concentration of the supernatant was analyzed by HPLC. After 120 min, XRPD of disc surface was measured.

[7] = Hygroscopicity: water sorption and desorption by dynamic vapor sorption (DVS); format: physicochemical
Procedure: In some embodiments, the crystalline form described herein is further characterized by is further characterized by a dynamic vapor sorption (DVS) profile. In some embodiments, a DVS is recorded according to the method as described herein with a cycle of 40-0-95-0-40% RH at 25° C.
Water sorption and desorption behaviors of Form A, Form C, Form D, and Form T were investigated by DVS at 25° C. with a cycle of 40-0-95-0-40% RH. Dm/dt was 0.002. Minimum equilibration time was 60 min. Maximum equilibration time was 360 min. XRPD was measured after DVS test to determine potential form change.

MAT2A enzyme = molecular target: T1, MAT2A enzyme (Homo sapiens, UniProt P31153); test: Phosphate Sensor Fluorescence Assay; format: biochemical; settings: inhibition of MAT2A enzyme
T1 construct: Human MAT2A: Cepter, amino acids 1-395; purchased Cepter clone ID 329, lot 00023-123; clone ID 334, lot 00023-148
Procedure: The ability of the compound of Formula (I) described in Example 1 to inhibit MAT2A enzyme was determined using a Phosphate Sensor Fluorescence Assay described below.
MAT2A enzyme is incubated with a test compound in DMSO or DMSO and its substrates (L-methionine and ATP) in a microtiter plate. The enzymatic reaction is stopped by the addition of Working Phosphate Sensor Mixture. The plate is analyzed for fluorescence at 450 nm. The high control (DMSO with enzyme and its substrates) gives high fluorescence which represents no inhibition of enzymatic activity while the low control (DMSO with MAT2A substrates and no enzyme) gives low fluorescence which represents full inhibition of enzymatic activity. […]
For the assay, a mixture of 1 mM L-methionine/1 mM ATP (2× final pre-stopped concentration) in assay buffer; MAT2A (2× final pre-stopped concentration) in Assay Buffer and Working Phosphate Sensor Mixture (1.5 μM Phosphate Sensor/30 mM EDTA in Assay Buffer, which is 3× final concentrations) were prepared. […] The plate was read for fluorescence at 450 nm after exciting at 430 nm.
Percent inhibition was calculated in Chemical and Biological Information System (CBIS), (ChemInnovation Software Inc.). […]

[8] = Behavior under compression; format: physicochemical; settings: 2 Mpa/2 min, hydraulic press
Procedure: XRPD characterization was performed to investigate polymorphic behavior under compression.

[9] = Bulk stability of crystalline forms; format: physicochemical; design: key: Color A: All No change of color; Color B: Slightly discoloration; settings: Solid state, 60° C., tight container, 2 weeks
From the text: as §1

[10] = 25° C./92% RH, open container, 1 week
[11] = 25° C./92% RH, open container, 2 weeks
[12] = 25° C./92% RH, open container, 4 weeks
[13] = 40° C./75% RH, open container, 1 week
[14] = 40° C./75% RH, open container, 2 weeks
[15] = 40° C./75% RH, open container, 4 weeks
[16] = 60° C., tight container, 1 week
[17] = 60° C., tight container, 2 weeks
[18] = 60° C., tight container, 4 weeks

T1 sequence (P31153 whole entry, the tested form may be a part): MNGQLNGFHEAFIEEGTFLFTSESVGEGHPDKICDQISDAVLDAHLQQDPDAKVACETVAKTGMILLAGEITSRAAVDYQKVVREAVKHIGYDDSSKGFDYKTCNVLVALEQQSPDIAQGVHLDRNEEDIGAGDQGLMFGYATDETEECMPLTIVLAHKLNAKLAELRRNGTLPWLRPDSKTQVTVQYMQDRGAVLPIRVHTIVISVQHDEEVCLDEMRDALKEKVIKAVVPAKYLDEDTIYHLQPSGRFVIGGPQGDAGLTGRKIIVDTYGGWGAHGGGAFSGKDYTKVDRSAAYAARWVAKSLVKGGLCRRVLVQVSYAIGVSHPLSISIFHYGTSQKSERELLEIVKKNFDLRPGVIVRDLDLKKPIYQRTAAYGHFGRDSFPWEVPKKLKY

Structure (SMILES) | Purity, Bulk (HPLC) [1, 10] | Purity, Bulk (HPLC) [1, 11] | Purity, Bulk (HPLC) [1, 12] | Purity, Bulk (HPLC) [1, 13] | Purity, Bulk (HPLC) [1, 14] | Purity, Bulk (HPLC) [1, 15] | Purity, Bulk (HPLC) [1, 16] | Purity, Bulk (HPLC) [1, 17] | Purity, Bulk (HPLC) [1, 18] | Initial purity [1] | chemical stability and physical stability (bulk stability) [1] | Color [4, 10] | Color [4, 11] | Color [4, 12] | Color [4, 13] | Color [4, 14] | Color [4, 15] | Color [4, 16] | Color [4, 18] | final pH ([5]; FaSSIF, pH 6.5, 37° C.) | also measured
Nc1nc(=O)n(-c2ccccc2Cl)c2nc(C(F)(F)F)ccc12 [Form T, 4-Amino-1-(2-chlorophenyl)-7-(trifluoromethyl)pyrido[2,3-d]pyrimidin-2(1H)-one] | 99.1% | 99.0% | 98.9% | 98.9% | 98.7% | 98.3% | 99.1% | 99.0% | 98.7% | 99.1% | good chemical stability and physical stability | A | A | A | A | A | A | A | A | 6.5 | XRPD after wet grinding ([2]; Water): No form change; form change after granulation with water ([2]; wet grinding, XRPD): no form change; tolerance to granulation with water ([2]; wet grinding, XRPD): good tolerance; XRPD after dry grinding ([3]; Dry grinding for 5 min): substantially amorphous; tolerance to dry grinding ([3]; ground manually with mortar and pestle, 5 min or 1 min, XRPD): poor tolerance; Color [4, 17]: A; XRPD of solid after solubility test ([5]; FaSSIF, pH 6.5, 37° C.): Form T; Solubility ([5]; FaSSIF, pH 6.5, 37° C.): 80 µg/mL (≈ 235 µM); XRPD of solid after solubility test ([5]; FeSSIF, pH 5.0, 37° C.): Form T; final pH ([5]; FeSSIF, pH 5.0, 37° C.): 5.0; Solubility ([5]; FeSSIF, pH 5.0, 37° C.): 160 µg/mL (≈ 470 µM); XRPD after IDR [6]: No form change; Concentration detected during IDR test (Comments) [6]: <LOQ (0.0003 mg/mL; hygroscopicity ([7]; DVS at 25° C., cycle 40-0-95-0-40% RH): slightly hygroscopic; form change after the DVS test ([7]; XRPD after DVS): No form change
Nc1nc(=O)n(-c2ccccc2Cl)c2nc(C(F)(F)F)ccc12 [Formula (I), 4-Amino-1-(2-chlorophenyl)-7-(trifluoromethyl)pyrido[2,3-d]pyrimidin-2(1H)-one] | – | – | – | – | – | – | – | – | – | – | – | – | – | – | – | – | – | – | – | – | pIC50 (MAT2A enzyme): > 6.70
Nc1nc(=O)n(-c2ccccc2Cl)c2nc(C(F)(F)F)ccc12 [substantially amorphous form, 4-Amino-1-(2-chlorophenyl)-7-(trifluoromethyl)pyrido[2,3-d]pyrimidin-2(1H)-one] | 98.5% | 98.1% | 97.2% | 97.5% | 96.1% | 93.5% | 98.4% | 97.8% | 97.8% | 98.7% | physically stable | A | A | A | A | A | A | A | A | 6.5 | degradation (bulk stability) ([1]; after exposure to 40° C./75 RH in an open container and 60° C. in a tight container): slight degradation; XRPD after compression [8]: No form change; Color [9]: B; Solubility ([5]; FaSSIF, pH 6.5, 37° C.): 120 µg/mL (≈ 352 µM); final pH ([5]; FeSSIF, pH 5.0, 37° C.): 5.0; Solubility ([5]; FeSSIF, pH 5.0, 37° C.): 230 µg/mL (≈ 675 µM); XRPD after IDR [6]: No form change; Concentration detected during IDR test (Comments) [6]: <LOQ (0.0008 mg/mL
